In test [1] the target is Protein farnesyltransferase (Bos taurus, UniProt P29702+P49355). The experiment in a line: Inhibition of Farnesyltransferase catalyzed incorporation of [3H]-FPP into recombinant Ras-CVIM. Type of test: functional.
For test [2], the target named is T1, Geranylgeranyl transferase type I (Homo sapiens, UniProt P49354+P53609). The test can be described thus: Inhibition of the human Geranylgeranyl transferase type I catalyzed incorporation of [3H]GGPP into a biotinylated peptide corresponding to the C-terminus of human K-Ras. In kind it is functional.
The target in test [3] is Protein farnesyltransferase. The test can be described thus: Displacement of radiolabeled FTI from Farnesyltransferase in v-Ha-ras-transformed Rat1 cells. In kind it is cell-based.
Test [4] has as its target Protein farnesyltransferase (Homo sapiens, UniProt P49354+P49356). The test can be described thus: Inhibition of HDJ2 farnesylation in PSN-1 cells. In kind it is functional, cell-based.
In test [5] the target is T1, Geranylgeranyl transferase type I. The experiment in a line: Inhibition of geranylgeranylation of Rap1a in PSN-1 cells. Type of test: functional, cell-based.

SMILES strings stand for the structures.

As to `O=C1CN2CCc3cncn3Cc3cccc(c3)Oc3ccc4cccc(c4c3)N1CC2`, the values for the IC50 in test [1] and in test [2] were 8 nM and 509 nM, respectively.
As for `O=C1CN2CCc3cncn3Cc3ccc(C#CCCC(F)(F)F)c(c3)Oc3ccc4cccc(c4c3)N1CC2`, the 50% inhibitory concentration (IC50) in test [1] stood at 6.1 nM; in test [3] it was 0.81 nM; in test [2], 4.8 nM.
Take `O=C1CN2CCc3cncn3Cc3ccc(-c4ccc(C(F)(F)F)cc4)c(c3)Oc3ccc4cccc(c4c3)N1CC2`: the half-maximal inhibitory concentration (IC50) is 2.1 nM in test [1], 1.1 nM in test [3] and 15.6 nM in test [2].
Regarding `O=C1CN(Cc2cncn2Cc2ccc(-c3ccc(C(F)(F)F)cc3)nc2)CCN1c1cccc(Cl)c1`, the half-inhibitory concentration (IC50) in test [1] is 14 nM; in test [3], 159 nM; in test [2], 509 nM.
In the case of `COc1cc(C(F)(F)F)ccc1-c1ccc(Cn2cncc2CN2CCN(c3cccc(Cl)c3)C(=O)C2)cc1`, the values for the IC50 in test [1] and in test [2] were 392 nM and 1860 nM, respectively.
As for `O=C1CN(Cc2cncn2Cc2ccc(-c3ccc(F)cc3)cc2)CCN1c1cccc(Cl)c1`, the IC50 in test [1] came to 15 nM; in test [3], 662 nM; in test [2], 1340 nM.
For `O=C1CN(Cc2cncn2Cc2ccc(-c3ccc(OC(F)(F)F)cc3)nc2)CCN1c1cccc(Cl)c1`, the IC50 turned out to be 52 nM in test [1] and 560 nM in test [2].
As for `O=C1CN(Cc2cncn2Cc2ccc(-c3ccc(C(F)(F)F)cc3)cc2)CCN1c1cccc(Cl)c1`, the figures for the IC50 in test [3] and in test [2] were 29 nM and 140 nM, respectively.
`N#Cc1ccc2cc1Oc1ccc3cccc(c3c1)N1CCN(CCc3cncn3C2)CC1=O`: the IC50 in test [1] came out at 0.25 nM; in test [3] it was 0.19 nM; in test [2] it was 16 nM.
As for `O=C1CN(Cc2cncn2Cc2ccc(-c3ccccc3)cc2)CCN1c1cccc(Cl)c1`, the IC50 in test [1] is 12 nM; in test [3], 1600 nM; in test [2] it was 1390 nM.
Turning to `O=C1CN(Cc2cncn2Cc2ccc(-c3cccc(Cl)c3)cc2)CCN1c1cccc(Cl)c1`, the figures for the IC50 in test [1] and in test [2] were 17 nM and 8450 nM, respectively.
As to `N#Cc1ccc(Cn2cncc2CN2CCN(c3cccc(Cl)c3)C(=O)C2)cc1` [L-778123 FREE BASE], the IC50 in test [1] was found to be 2 nM.
On to `O=C1CN2CCc3cncn3Cc3ccc(Br)c(c3)Oc3ccc4cccc(c4c3)N1CC2`, for which the IC50 came out at 1.2 nM in test [1], 2 nM in test [3] and 161 nM in test [2].
For `O=C1CN(Cc2cncn2Cc2ccc(-c3cc(Cl)cc(Cl)c3)cc2)CCN1c1cccc(Cl)c1`, the IC50 in test [1] was 35 nM; in test [3] it was 600 nM; in test [2], 3030 nM.
The corresponding values for `O=C1CN(Cc2cncn2Cc2ccc(-c3ccc(Cl)cc3)cc2)CCN1c1cccc(Cl)c1` are 8.7 nM, 193 nM and 210 nM.
The matching figures for `O=C1CN(Cc2cncn2Cc2ccc(-c3ccc(Cl)cc3)nc2)CCN1c1cccc(Cl)c1`: 19 nM, 250 nM and 2300 nM.
As for `COc1cc(Cn2cncc2CCN2CCN(c3cccc(Cl)c3)C(=O)C2)ccc1-c1ccc(C(F)(F)F)cc1`, the half-inhibitory concentration (IC50) in test [1] came out at 0.17 nM; in test [3], 1.2 nM; in test [2], 151 nM. The values for the EC50 in test [4] and in test [5] were 28 nM and 3400 nM, respectively.
Regarding `CCCCc1ccc2cc1Oc1ccc3cccc(c3c1)N1CCN(CCc3cncn3C2)CC1=O`, the IC50 in test [1] worked out at 10.3 nM; in test [2], 2480 nM.
The corresponding values for `O=C1CN(Cc2cncn2Cc2ccc(-c3cc(C(F)(F)F)cc(C(F)(F)F)c3)cc2)CCN1c1cccc(Cl)c1` are 3500 nM and 1870 nM.
As for `O=C1CN(Cc2cncn2Cc2ccc(-c3cccc(C(F)(F)F)c3)cc2)CCN1c1cccc(Cl)c1`, the IC50 in test [1] was found to be 410 nM; in test [3] it was 662 nM; in test [2] it was 2680 nM.
For `O=C1CN2CCc3cncn3Cc3ccc(CCCCC(F)(F)F)c(c3)Oc3ccc4cccc(c4c3)N1CC2`, the values for the IC50 in test [1], in test [3] and in test [2] were 3.1 nM, 0.48 nM and 60 nM, respectively. For the same compound, the EC50 in test [4] stood at 6.9 nM; in test [5], 800 nM.
With `COc1cc(Cn2cncc2CN2CCN(c3cccc(Cl)c3)C(=O)C2)ccc1-c1ccc(C(F)(F)F)cc1`, the values for the IC50 in test [1], in test [3] and in test [2] were 1.6 nM, 12 nM and 70 nM, respectively.

The IC50 is the concentration that inhibits the measured activity by half. What is called EC50 is the midpoint of the concentration-response curve. Higher therefore signals lower potency in that assay.
